Measured values published in patent US20170240592A1, “GADD45BETA/MKK7 INHIBITOR FOR THE TREATMENT OF A RESISTANT HAEMATOLOGICAL MALIGNANCY” (IMPERIAL INNOVATIONS LIMITED, priority 2014, published 2017).

Experiments:
[1] = target: T1, Gadd45β/MKK7 complex (Homo sapiens, UniProt O14733); experiment: co-immunoprecipitation assay; assay type: binding; details: anti-FLAG immunoprecipitates, HEK-293T lysates
T1 construct: expressed in transfected cells; host or cells: human HEK-293T
T1 sequence (O14733 1-419): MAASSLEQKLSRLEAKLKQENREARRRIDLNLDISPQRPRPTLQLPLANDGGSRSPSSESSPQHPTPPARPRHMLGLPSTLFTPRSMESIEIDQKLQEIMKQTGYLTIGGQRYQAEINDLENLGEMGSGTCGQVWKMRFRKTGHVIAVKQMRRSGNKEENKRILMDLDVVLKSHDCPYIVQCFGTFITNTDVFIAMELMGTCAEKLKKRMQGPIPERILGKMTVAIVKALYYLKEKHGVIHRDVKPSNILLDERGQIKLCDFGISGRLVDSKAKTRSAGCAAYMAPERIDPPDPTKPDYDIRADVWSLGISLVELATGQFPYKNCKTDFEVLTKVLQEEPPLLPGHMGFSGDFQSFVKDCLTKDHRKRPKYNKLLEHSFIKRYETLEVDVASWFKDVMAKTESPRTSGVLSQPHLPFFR
Protocol: Values express the percentage of live cells present in the treated cultures relative to the live cells present in the respective untreated cultures and denote means±SD ([WM]; n=3). UT, untreated. […] Values express the percentage of inhibition of Gadd45β binding to MKK7 relative to the binding measured in the absence of peptide. […] Co-immunoprecipitations (IP) were performed using an anti-FLAG antibody (a-FLAG); western blots (WB) were developed using an anti-HA or an anti-MKK7 antibody, as shown.
Co-immunoprecipitation assays were performed as described previously (Papa et al., 2004). Briefly, human HEK-293T cells were seeded at a density of 1.8-2.2×10^6 cells/dish in […] tissue-culture dishes and then transfected with pcDNA-FLAG-hMKK7 and pcDNA-HA-hGADD45β by using the calcium phosphate precipitation method (Papa et al., 2004). 48 hr after transfection, cells were washed with PBS and then lysed in lysis buffer supplemented with protease inhibitors (1 mM phenylmethylsulfonylfluoride, 10 μM chymostatin, 2 μg/mL aprotinin, 2 μg/mL leupeptin; Roche) for 30 min in ice. Cell lysates were cleared by centrifugation at 45,000×g for 40 min and then used for co-immunoprecipitations with anti-FLAG M2 Affinity Gel (Sigma-Aldrich), binding to FLAG-tagged MKK7. Western blots were developed using an anti-HA (binding to HA-hGADD45β) or an anti-MKK7 antibody. […]

[2] = test system: diffuse large B-cell lymphoma (DLBCL) cell lines; experiment: PI nuclear staining assay, apoptotic cells in DLBCL cell lines; assay type: cell-based, human; details: 10 μM, 6 days
Protocol: Current treatment of diffuse large B-cell lymphoma typically involves treatment with combination therapy, such as cyclophosphamide, doxorubicin, vincristine and prednisone (CHOP), or rituximab, cyclophosphamide, doxorubicin, vincristine and prednisone (R-CHOP). With those current treatments, many patients relapse and/or develop drug resistance at some point. The potential of the Gadd45β/MKK7 inhibitor DTP3 to operate in these settings was evaluated, by determining levels of apoptosis in diffuse large B-cell lymphoma cell lines known to be resistant to current therapies (HT, SU-DHL-8, U-2932, RC-K8 and RIVA, see for example Kaneko et al, Clinical Cancer Research, 2014, 20, p 1814-1820; Naylor et al, Cancer Research, 2011, Volume 71, p 2643-2653; Lyu et al, Cancer Research, 2013, Volume 73, Issue 8, Supplement 1), following treatment of those cells with DTP3. These cells have CARD11, A20 and/or MYD88 mutations and are also known to be resistant to agents such as Bruton's tyrosine kinase inhibitors, spleen tyrosine kinase inhibitors, PI3K inhibitors and/or protein kinase C inhibitors.
The percentages of apoptotic cells are depicted.
A comparison was made between the ability of DTP3 to kill various DLBCL cell lines by apoptosis in vitro. Cell lines HT, SU-DHL-8, U-2932 and RC-K8 which are known to be sensitive to DTP3; and insensitive cell lines RI-1, NU-DUL-1, TMD8, and HBL1 were used. Cell death was assessed using a standard propidium iodide (PI) nuclear staining assay followed by flow cytometry whereby the proportion of cells with a sub G1-DNA content was measured after cells had been exposed to DTP3 for 6 days at 10 μM. As controls, further populations of cells were left untreated (UT) or were treated with a scrambled D-tripeptide (SCR) for 6 days.
Apoptosis analyses were performed using propidium iodide (PI) nuclear labelling, as described previously (Riccardi and Nicoletti, 2006). Briefly, cells were seeded at a density of 2×10^5 cells/well into wells of either 24- or 48-well plates and cultured in the presence or absence of treatment, as shown. Cells were then fixed in 70% ice-cold ethanol for 16 hr, washed in PBS, and treated with ribonuclease A (50 μg/mL) for 30 min at room temperature. Samples were finally stained with PI (50 μg/mL) in 0.1% sodium citrate buffer for 2 to 4 hr at 4° C. in the dark, and data were acquired using a FACSCalibur automated system (Becton Dickinson) and analysed with FlowJo.

[3] = tolerability in mice; assay type: in vivo
Text: Values denote means±SD (n=3) or SEM (n=5), as indicated. MW, molecular weight.

[4] = in vivo pharmacokinetic analyses after single intravenous injection; details: calculated from measured PK values, k0=k1×Vd×Cp
Protocol: In vitro pharmacokinetic assays were performed according to established, in-house protocols and included: plasma stability (human), thermodynamic solubility (PBS pH 7.4, at 37° C. for 14 days), microsomal stability (human), plasma protein binding (PPB; mouse and human), and distribution coefficient (Log D). In vivo pharmacokinetic analyses were also performed at Cyprotex according to established, in-house protocols. Briefly, the peptides were dissolved in PBS and administered by single intravenous injection to CD1 male mice at the dose of 10 mg/kg (25-30 g of total body weight; n=3 mice per time point per compound). Blood samples were collected in heparinized tubes at up to 7 time points after this injection (i.e. 0.08, 0.25, 0.5, 1, 2, 4 and 8 hr), and the plasma concentrations of the test peptide were determined at each time point by LC-MS/MS, using a five-point standard curve covering a peptide concentration range from 3 to 3,000 ng/mL. Standard curves were prepared using blank plasma matrices and treated in the same manner as the test samples. […] Values were calculated from the data of the peptide plasma concentration versus time curves using a non-compartmental model analysis, as described elsewhere (Groulx, 2006; Landaw and Di Stefano 3rd, 1982). The doses of z-DTP2 and DTP3 predicted to achieve the therapeutic plasma concentration of 1 μM at the steady state were calculated from the measured pharmacokinetic values using the following equation: k0=k1×Vd×Cp (where Vd is expressed in L/kg; Cp is the plasma concentration at the steady state expressed in mg/L; k0 is the zero order input expressed in mg/kg/hr; k1 is the first order elimination constant [0.693/t1/2]).

SMILES: CC(=O)N[C@H](Cc1ccc(O)cc1)C(=O)N[C@H](CCCNC(=N)N)C(=O)N[C@H](Cc1ccccc1)C(N)=O [DTP3, Acetyl-Tyr-Arg-Phe-NH2]
- disruption of the Gadd45β/MKK7 complex [1]: disruption of the Gadd45β/MKK7 complex
- apoptosis in DLBCL cell lines resistant to conventional DLBCL treatments ([2]; HT, SU-DHL-8, U-2932, RC-K8): effective in causing apoptosis
- apoptosis in sensitive DLBCL cell lines ([2]; HT, SU-DHL-8, U-2932, RC-K8): substantial increases in apoptosis
- apoptosis in insensitive DLBCL cell lines ([2]; RI-1, NU-DUL-1, TMD8, HBL1): no increase in apoptosis
- tolerability after single administration ([3]; mice, single i.v. injection, s.c. injection or per os): excellent tolerability
- in-vivo tolerability ([3]; mouse, in vivo): excellent in-vivo tolerability
- tolerability after prolonged administration ([3]; osmotic pumps, 28 days, 14.5 mg/kg/day): excellent tolerability and lack of any apparent side effects
- predicted dose required to achieve the therapeutic plasma concentration of 1 μM at the steady state (k0) [4]: 0.81 mg/kg/h
